These compounds were tested against FGFR2 (Homo sapiens, UniProt P21802) (assay: FGFR2 Kinase Protocol - Condition 2 (Reaction Biology HotSpot radiometric kinase assay, no preincubation)). Settings: poly[Glu:Tyr] (4:1) 0.2 mg/ml, ATP 100 microM, 2 hr room temperature.
Assay type: biochemical
In short: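 Radiometric HotSpot format: FGFR2 (wildtype or V564F) with poly[Glu:Tyr] (4:1) at 0.2 mg/ml in HEPES pH 7.5 buffer with 1% DMSO; ATP plus [γ33P]ATP at 100 µM total, added without preincubation. Reactions ran 2 hr at room temperature, then filter-bound. IC50 from 10-dose, 3-fold series versus DMSO control.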

Sequence of FGFR2 (P21802 22-821): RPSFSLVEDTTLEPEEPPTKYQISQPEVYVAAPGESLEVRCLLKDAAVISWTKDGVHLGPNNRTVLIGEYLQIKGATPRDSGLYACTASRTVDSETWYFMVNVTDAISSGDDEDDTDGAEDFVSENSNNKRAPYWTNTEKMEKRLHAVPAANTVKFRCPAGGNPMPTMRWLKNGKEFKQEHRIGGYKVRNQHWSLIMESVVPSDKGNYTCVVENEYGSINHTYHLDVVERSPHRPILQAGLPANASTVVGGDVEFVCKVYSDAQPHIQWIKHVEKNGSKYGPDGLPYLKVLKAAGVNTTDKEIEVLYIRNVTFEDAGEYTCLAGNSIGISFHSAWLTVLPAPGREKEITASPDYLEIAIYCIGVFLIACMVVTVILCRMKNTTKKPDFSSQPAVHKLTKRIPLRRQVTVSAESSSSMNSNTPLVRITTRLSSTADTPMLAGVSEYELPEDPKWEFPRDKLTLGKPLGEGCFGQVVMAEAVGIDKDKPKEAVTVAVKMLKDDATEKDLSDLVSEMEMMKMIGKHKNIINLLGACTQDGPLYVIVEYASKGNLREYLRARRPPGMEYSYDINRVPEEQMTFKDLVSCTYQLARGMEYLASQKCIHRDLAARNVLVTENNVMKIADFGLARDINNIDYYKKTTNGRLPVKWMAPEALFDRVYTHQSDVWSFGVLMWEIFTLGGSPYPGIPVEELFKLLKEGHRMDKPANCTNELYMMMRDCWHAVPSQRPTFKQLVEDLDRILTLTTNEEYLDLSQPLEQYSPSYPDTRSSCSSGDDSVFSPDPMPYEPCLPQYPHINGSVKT

Structure (SMILES) | IC50 [nM]
C=CC(=O)N1C[C@@H](n2nc(C#Cc3cc4nccn4cc3F)c3c(N)ncnc32)C[C@@H]1COC [Example 124, 1-((2R,4S)-4-(4-Amino-3-((6-fluoroimidazo[1,2-a]pyridin-7-yl)ethynyl)-1H-pyrazolo[3,4-d]pyrimidin-1-yl)-2-(methoxymethyl)pyrrolidin-1-yl)prop-2-en-1-one] | ≤ 100
C=CC(=O)N1C[C@@H](n2nc(C#Cc3cc4ncn(CC)c4c(F)c3F)c3c(N)ncnc32)C[C@@H]1CC#N [Example 157, 2-[(2R,4S)-4-{4-Amino-3-[2-(1-ethyl-6,7-difluoro-1,3-benzodiazol-5-yl)ethynyl]pyrazolo[3,4-d]pyrimidin-1-yl}-1-(prop-2-enoyl)pyrrolidin-2-yl]acetonitrile] | ≤ 100
C=CC(=O)N1C[C@@H](n2nc(C#Cc3cc4nc(C)n(C)c4cc3Cl)c3c(N)nccc32)C[C@@H]1COC [Example 97, 1-[(2R,4S)-4-[4-Amino-3-[2-(6-chloro-1,2-dimethyl-1,3-benzodiazol-5-yl)ethynyl]pyrazolo[4,3-c]pyridin-1-yl]-2-(methoxymethyl)pyrrolidin-1-yl]prop-2-en-1-one] | ≤ 100
C=CC(=O)N1C[C@@H](n2nc(C#Cc3cc4nc(C)[nH]c4cc3Cl)c3c(N)nccc32)C[C@@H]1COC [Example 100, 1-[(2R,4S)-4-[4-Amino-3-[2-(6-chloro-2-methyl-1H-1,3-benzodiazol-5-yl)ethynyl]pyrazolo[4,3-c]pyridin-1-yl]-2-(methoxymethyl)pyrrolidin-1-yl]prop-2-en-1-one] | ≤ 100
C=CC(=O)N1C[C@@H](n2nc(C#Cc3cc4nc(C)n(C(F)F)c4cc3Cl)c3c(N)nccc32)C[C@@H]1COC [Example 130, 1-[(2R,4S)-4-(4-Amino-3-{2-[6-chloro-1-(difluoromethyl)-2-methyl-1,3-benzodiazol-5-yl]ethynyl}pyrazolo[4,3-c]pyridin-1-yl)-2-(methoxymethyl)pyrrolidin-1-yl]prop-2-en-1-one] | ≤ 100
C=CC(=O)N1C[C@@H](n2cc(C#Cc3cc4ncn(C5CC5)c4cc3F)c3c(N)ncnc32)C[C@@H]1COC [Example 110, 1-[(2R,4S)-4-[4-Amino-5-[2-(1-cyclopropyl-6-fluoro-1,3-benzodiazol-5-yl)ethynyl]pyrrolo[2,3-d]pyrimidin-7-yl]-2-(methoxymethyl)pyrrolidin-1-yl]prop-2-en-1-one] | ≤ 100
C=CC(=O)N1C[C@@H](n2cc(C#Cc3cc4ncn(C(F)F)c4cc3F)c3c(N)ncnc32)C[C@@H]1COC [Example 84, 1-[(2R,4S)-4-(4-Amino-5-[2-[1-(difluoromethyl)-6-fluoro-1,3-benzodiazol-5-yl]ethynyl]pyrrolo[2,3-d]pyrimidin-7-yl)-2-(methoxymethyl)pyrrolidin-1-yl]prop-2-en-1-one] | ≤ 100
C=CC(=O)N1C[C@@H](n2nc(C#Cc3cc4ncn(C)c4cc3Cl)c3c(N)nccc32)C[C@@H]1C(F)F [Example 172, 1-((2R,4S)-4-(4-amino-3-((6-chloro-1-methyl-1H-benzo[d]imidazol-5-yl)ethynyl)-1H-pyrazolo[4,3-c]pyridin-1-yl)-2-(difluoromethyl)pyrrolidin-1-yl)prop-2-en-1-one] | ≤ 100
C=CC(=O)N1C[C@@H](n2nc(C#Cc3c(F)cc4c(ncn4C)c3F)c3c(N)ncnc32)C[C@@H]1COC [Example 55, 1-[(2R,4S)-4-[4-Amino-3-[2-(4,6-difluoro-1-methyl-1,3-benzodiazol-5-yl)ethynyl]pyrazolo[3,4-d]pyrimidin-1-yl]-2-(methoxymethyl)pyrrolidin-1-yl] prop-2-en-1-one] | ≤ 100
C=CC(=O)N1C[C@@H](n2nc(C#Cc3cc4nc(C)n(C)c4c(F)c3F)c3c(N)ncnc32)C[C@@H]1COC [Example 122, 1-[(2R,4S)-4-[4-Amino-3-[2-(6,7-difluoro-1,2-dimethyl-1,3-benzodiazol-5-yl)ethynyl]pyrazolo[3,4-d]pyrimidin-1-yl]-2-(methoxymethyl)pyrrolidin-1-yl]prop-2-en-1-one] | ≤ 100

From patent US20230374015A1, “INHIBITORS OF FIBROBLAST GROWTH FACTOR RECEPTOR KINASES” (Kinnate Biopharma Inc., priority 2020, published 2023)
